Results on 25 compounds are retold here after patent US12325701B2, “YKL-40 inhibitors and their therapeutic” (Molecure S.A., priority 2022, dated 2025).

Structures can show the parent of a compound that is named as a salt. Where two headings read alike, the source gives them in different places.

Assay [1] has as its target YKL-40 (YKL-40: heparan sulfate interaction) (Homo sapiens (Human), UniProt P36222). Put plainly: YKL-40:HS assay, heparan sulfate interference AlphaScreen. Particulars: read-out: YKL-40:HS, IC50/max % inh (max % inh). A general note: In Alpha technology, singlet oxygen from a donor bead excites a nearby acceptor bead.
Description: Positive and negative control wells received just 8 uL of MST buffer containing 2% DMSO without inhibitor in the 2nd step (ii). In addition, negative control received just 8 uL of MST buffer containing 0% DMSO without YKL-40-histag in the 3nd step (iii). Finally, the plate luminescence was excited at 680 nm and the emission read at 520-620 nm using the AlphaScreen module in the The Spark™ 1 μM multimode microplate reader (Tecan Trading AG, Mannedorf, Switzerland). Inhibition percentage and IC50 values were determined using GraphPad Prism 7.0 software (GraphPad Software, San Diego, CA, USA).
Assay [2] addresses YKL-40 (YKL-40-histag, chitin binding site) (Homo sapiens (Human), UniProt P36222). Briefly: YKL-40:4 assay, competitive chitin binding site AlphaScreen.
The next assay concerns the target human YKL-40 (Homo sapiens (Human), UniProt P36222). Briefly: Human YKL-40 direct binding assay based on MicroScale Thermophoresis (MST). Particulars: by MST and competitive AlphaScreen for chitin binding site; depends on ligand length, sulphation, Mg2+. For orientation: Microscale thermophoresis detects binding through changes in fluorescence in a small temperature gradient.

YKL-40 (YKL-40: heparan sulfate interaction), sequence (P36222 22-383): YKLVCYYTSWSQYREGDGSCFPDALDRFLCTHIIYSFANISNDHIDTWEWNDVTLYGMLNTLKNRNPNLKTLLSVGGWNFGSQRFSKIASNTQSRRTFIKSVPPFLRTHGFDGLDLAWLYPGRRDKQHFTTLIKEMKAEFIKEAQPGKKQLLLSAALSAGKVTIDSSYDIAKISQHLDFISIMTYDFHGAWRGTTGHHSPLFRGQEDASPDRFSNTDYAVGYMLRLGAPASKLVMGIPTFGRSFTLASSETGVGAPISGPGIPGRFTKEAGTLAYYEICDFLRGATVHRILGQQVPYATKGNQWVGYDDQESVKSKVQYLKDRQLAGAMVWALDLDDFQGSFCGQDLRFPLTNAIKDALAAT
YKL-40 (YKL-40-histag, chitin binding site), sequence (P36222 22-383): as above
human YKL-40, sequence (P36222 22-383): as above

Consider `CN1C[C@H](Cc2ccc(Cl)cc2)N(C2CCN(c3cc(Cl)ccn3)CC2)C[C@@H]1CN1CCOCC1` [Compound 51, 4-(((2S,5S)-5-(4-chlorobenzyl)-4-(1-(4-chloropyridin-2-yl)piperidin-4-yl)-1-methyl-piperazin-2-yl)methyl)morpholine hydrochloride], for which the inhibition in assay [1] came out at 52%.
On the same count and under the same terms, then `CN1C[C@H](Cc2ccc(Cl)cc2)N(C2CCN(c3ccccn3)CC2)C[C@@H]1Cc1ccc(Cl)cc1` [Compound 63, (2S,5S)-2,5-bis(4-chlorobenzyl)-1-methyl-4-(1-(pyridin-2-yl)piperidin-4-yl)piperazine 2,2,2-trifluoroacetate], with 85%.
On to `CN1C[C@H](Cc2ccc(Cl)cc2)N(C2CCN(c3cc(Cl)ccn3)CC2)C[C@@H]1Cn1ccnc1` [Compound 82, (2R,5S)-2-((1H-imidazol-1-yl)methyl)-5-(4-chlorobenzyl)-4-(1-(4-chloropyridin-2-yl)piperidin-4-yl)-1-methylpiperazine hydrochloride], for which the inhibition in assay [1] came to 75%.
The same measure, in the same setting: in the case of `CNC(=O)CN1C[C@H](Cc2ccc(Cl)cc2)N(C2CCN(c3ccccn3)CC2)C[C@@H]1CC(C)C` [Compound 95, 2-((2S,5S)-5-(4-chlorobenzyl)-2-isobutyl-4-(1-(pyridin-2-yl)piperidin-4-yl)piperazin-1-yl)-N-methylacetamide 2,2,2-trifluoroacetate] it was 85%; in that of `CNC(=O)CN1C[C@H](Cc2ccc(Cl)cc2)N(C2CCN(c3ccccn3)CC2)C[C@@H]1C(C)C` [Compound 106, 2-((2S,5S)-5-(4-chlorobenzyl)-2-isopropyl-4-(1-(pyridin-2-yl)piperidin-4-yl)piperazin-1-yl)-N-methylacetamide 2,2,2-trifluoroacetate], 27%.
Take `Cc1ccnc(N2CCC(N3C[C@H](C)OC[C@@H]3Cc3ccc(Cl)cc3)CC2)c1F` [Compound 112, (2S,5S)-5-(4-chlorobenzyl)-4-(1-(3-fluoro-4-methylpyridin-2-yl)piperidin-4-yl)-2-methylmorpholine 2,2,2-trifluoroacetate]: the inhibition in assay [1] came out at 30%.
Consider `C[C@H]1CN(C2CCN(c3ncnc(N)n3)CC2)[C@@H](Cc2ccc(Cl)cc2)CO1` [Compound 174, 4-(4-((2S,5S)-5-(4-chlorobenzyl)-2-methylmorpholino)piperidin-1-yl)-1,3,5-triazin-2-amine 2,2,2-trifluoroacetate], for which, in assay [2], the IC50 is over 10 µM.
Take `C[C@H]1CN(C2CCN(c3ncnc(N(C)C)n3)CC2)[C@@H](Cc2ccc(Cl)cc2)CO1` [Compound 175, 4-(4-((2S,5S)-5-(4-chlorobenzyl)-2-methylmorpholino)piperidin-1-yl)-N,N-dimethyl-1,3,5-triazin-2-amine 2,2,2-trifluoroacetate]: the IC50 in assay [2] is over 10 µM.
In the case of `C[C@H]1CN(C2CCN(c3ncns3)CC2)[C@@H](Cc2ccc(Cl)cc2)CO1` [Compound 179, (2S,5S)-4-(1-(1,2,4-thiadiazol-5-yl)piperidin-4-yl)-5-(4-chlorobenzyl)-2-methylmorpholine 2,2,2-trifluoroacetate], the IC50 in assay [2] was over 10 µM.
Still for that read-out and setting: then `Cc1nsc(N2CCC(N3C[C@H](C)OC[C@@H]3Cc3ccc(Cl)cc3)CC2)n1` [Compound 180, (2S,5S)-5-(4-chlorobenzyl)-2-methyl-4-(1-(3-methyl-1,2,4-thiadiazol-5-yl)piperidin-4-yl)morpholine 2,2,2-trifluoroacetate], with over 10 µM.
Still for that read-out and setting: then `C[C@H]1CN(C2CCN(c3nncs3)CC2)[C@@H](Cc2ccc(Cl)cc2)CO1` [Compound 181, (2S,5S)-4-(1-(1,3,4-thiadiazol-2-yl)piperidin-4-yl)-5-(4-chlorobenzyl)-2-methylmorpholine 2,2,2-trifluoroacetate], with over 10 µM; and `Cc1nnc(N2CCC(N3C[C@H](C)OC[C@@H]3Cc3ccc(Cl)cc3)CC2)s1` [Compound 182, (2S,5S)-5-(4-chlorobenzyl)-2-methyl-4-(1-(5-methyl-1,3,4-thiadiazol-2-yl)piperidin-4-yl)morpholine 2,2,2-trifluoroacetate], with over 10 µM.
`Cc1nc(N2CCC(N3C[C@H](C)OC[C@@H]3Cc3ccc(Cl)cc3)CC2)sc1C` [Compound 183, (2S,5S)-5-(4-chlorobenzyl)-4-(1-(4,5-dimethylthiazol-2-yl)piperidin-4-yl)-2-methylmorpholine 2,2,2-trifluoroacetate]: the inhibition in assay [1] was determined as 53%.
On the same count and under the same terms, in the case of `Cc1cnc(N2CCC(N3C[C@H](C)OC[C@@H]3Cc3ccc(Cl)cc3)CC2)s1` [Compound 185, (2S,5S)-5-(4-chlorobenzyl)-2-methyl-4-(1-(5-methylthiazol-2-yl)piperidin-4-yl)morpholine 2,2,2-trifluoroacetate] it was 36%.
In assay [2], `Cc1noc(N2CCC(N3C[C@H](C)OC[C@@H]3Cc3ccc(Cl)cc3)CC2)n1` [Compound 188, (2S,5S)-5-(4-chlorobenzyl)-2-methyl-4-(1-(3-methyl-1,2,4-oxadiazol-5-yl)piperidin-4-yl)morpholine 2,2,2-trifluoroacetate] displayed an IC50 of over 10 µM.
Same read-out and setting: then `Cc1cccnc1N1CCC(N2C[C@H](C)OC[C@@H]2Cc2ccc(Cl)cc2)CC1` [Example 16, (2S,5S)-5-(4-chlorobenzyl)-2-methyl-4-(1-(3-methylpyridin-2-yl)piperidin-4-yl)morpholine 2,2,2-trifluoroacetate], with over 10 µM.
Compound `C[C@H]1CN(C2CCN(c3cccc(C#N)n3)CC2)[C@@H](Cc2ccc(Cl)cc2)CO1` [Example 18, 6-(4-((2S,5S)-5-(4-chlorobenzyl)-2-methylmorpholino)piperidin-1-yl)picolinonitrile 2,2,2-trifluoroacetate] displayed an IC50 in assay [2] of over 10 µM.
The same measure, in the same setting: in the case of `C[C@H]1CN(C2CCN(c3ccc(C#N)cn3)CC2)[C@@H](Cc2ccc(Cl)cc2)CO1` [Example 19, 6-(4-((2S,5S)-5-(4-chlorobenzyl)-2-methylmorpholino)piperidin-1-yl)nicotinonitrile 2,2,2-trifluoroacetate] it was over 10 µM; in that of `C[C@H]1CN(C2CCN(c3cc(F)ncn3)CC2)[C@@H](Cc2ccc(Cl)cc2)CO1` [Example 24, (2S,5S)-5-(4-chlorobenzyl)-4-(1-(6-fluoropyrimidin-4-yl)piperidin-4-yl)-2-methylmorpholine 2,2,2-trifluoroacetate], over 10 µM.
Still for that read-out and setting: in the case of `C[C@H]1CN(C2CCN(c3ncc(F)cc3F)CC2)[C@@H](Cc2ccc(Cl)cc2)CO1` [Example 25, (2S,5S)-5-(4-chlorobenzyl)-4-(1-(3,5-difluoropyridin-2-yl)piperidin-4-yl)-2-methylmorpholine 2,2,2-trifluoroacetate] it was over 10 µM; in that of `C[C@H]1CN(C2CCN(c3ccncn3)CC2)[C@@H](Cc2ccc(Cl)cc2)CO1` [Example 26, (2S,5S)-5-(4-chlorobenzyl)-2-methyl-4-(1-(pyrimidin-4-yl)piperidin-4-yl)morpholi-ne 2,2,2-trifluoroacetate], over 10 µM.
Same read-out and setting: in the case of `C[C@H]1CN(C2CCN(c3cccnc3)CC2)[C@@H](Cc2ccc(Cl)cc2)CO1` [Example 27, (2S,5S)-5-(4-chlorobenzyl)-2-methyl-4-(1-(pyridin-3-yl)piperidin-4-yl)morpholine 2,2,2-trifluoroacetate] it was over 10 µM; in that of `C[C@H]1CN(C2CCN(c3ccncc3)CC2)[C@@H](Cc2ccc(Cl)cc2)CO1` [Example 28, (2S,5S)-5-(4-chlorobenzyl)-2-methyl-4-(1-(pyridin-4-yl)piperidin-4-yl)morpholine 2,2,2-trifluoroacetate], over 10 µM.
Consider `C[C@H]1CN(C2CCN(c3ccccc3)CC2)[C@@H](Cc2ccc(Cl)cc2)CO1` [Example 37, (2S,5S)-5-(4-chlorobenzyl)-2-methyl-4-(1-phenylpiperidin-4-yl)morpholine dihydro-chloride], for which the IC50 in assay [2] (competition with biotinylated compound 4, 20 nM, YKL-40-histag 2.5 nM, read-out: YKL-40:4, IC50/Kd (IC50 range)) is over 10 µM.
heparin sodium salt: at human YKL-40, the “binding affinity to YKL-40 (in words)” value was “high nM affinity”.
